Measured values published in publication PMC11643225, “Novel Benzimidazole-Endowed Chalcones as α-Glucosidase and α-Amylase Inhibitors: An Insight into Structural and Computational Studies” (Molecules, 2024).
“Also recorded” adds a separate entry of the source.

How the values were obtained:
yeast α-glucosidase = yeast α-glucosidase inhibition assay (pNPG substrate); type: biochemical; settings: yeast enzyme, 37 °C
Experimental: (§1) The in vitro enzyme inhibition assays for the two enzymes, i.e., α-glucosidase and α-amylase, were performed according to the previous studies.
The yeast α-glucosidase inhibition assay was performed using pNPG as substrate. An amount of 100 µL of enzyme was then added to the mixture, and the reaction was incubated at 37 °C for 10 min. After adding 0.5 mM pNPG solution, the reaction continued at 37 °C for 20 min. The enzyme activity was determined by measuring the absorbance of the liberated p-nitrophenol at 405 nm using a microplate spectrophotometer. The results were expressed as a percentage of α-glucosidase inhibition, calculated using the formula “Inhibition (%) = (A control − A sample)/A control × 100”. The final results of the enzyme inhibition assay are represented as IC50 values which refers to the concentration required to block 50% of α-glucosidase activity under the test conditions.

[1] = target: T1, type-VI B porcine pancreatic α-amylase (Sus scrofa, UniProt P00690); assay: α-amylase inhibition assay (starch substrate, DNS reagent); type: biochemical; settings: porcine pancreatic enzyme, 25 °C, read-out: IC50 (mean ± SD) α-Amylase (converted)
T1 construct: performed using type-VI B porcine pancreatic α-amylase, with starch as a substrate; from tissue; host or cells: porcine pancreas
T1 sequence (P00690 16-511): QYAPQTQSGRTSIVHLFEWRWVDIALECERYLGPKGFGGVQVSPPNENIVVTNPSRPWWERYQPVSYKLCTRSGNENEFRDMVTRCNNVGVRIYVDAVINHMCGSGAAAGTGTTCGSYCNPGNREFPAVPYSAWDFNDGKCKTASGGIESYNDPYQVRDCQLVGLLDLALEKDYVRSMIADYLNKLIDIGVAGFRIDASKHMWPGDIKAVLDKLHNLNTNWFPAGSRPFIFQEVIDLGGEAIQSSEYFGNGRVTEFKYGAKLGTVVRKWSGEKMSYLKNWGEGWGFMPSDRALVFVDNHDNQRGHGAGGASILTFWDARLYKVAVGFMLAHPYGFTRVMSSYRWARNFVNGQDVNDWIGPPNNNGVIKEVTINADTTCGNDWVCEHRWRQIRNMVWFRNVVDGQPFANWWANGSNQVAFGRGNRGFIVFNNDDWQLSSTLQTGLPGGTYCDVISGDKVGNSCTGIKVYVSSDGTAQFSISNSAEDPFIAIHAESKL
Experimental: as §1
The α-amylase inhibition activity was performed using type-VI B porcine pancreatic α-amylase, with starch as a substrate. The enzyme was dissolved in sodium phosphate buffer and the test compound was added at different concentrations. […] The reaction was terminated by adding a DNS reagent and kept in a boiling water bath for 5 min. The resulting mixture was diluted and absorbance was measured at 540 nm using a microplate spectrophotometer.

HEK293 cells = type: cell-based; settings: for cytotoxicity against HEK293 cell lines (in words): MTT, 48 h, 250, 500 and 1000 µg/mL, even at the highest concentration (1000 µg/mL)
Experimental: The Human Embryonic Kidney (HEK-293) cell lines were cultured in Dulbecco’s Modified Eagle Medium (DMEM) supplemented with 10% fetal bovine serum (FBS). The cells were maintained at 37 °C in a humidified atmosphere of 5% CO2. The adherent cells were grown to 70–80% confluency and then harvested by trypsinization (0.25%). The test compounds were dissolved in DMSO and used for all the experiments. DMSO (0.1%) was used as vehicle control and cells cultured in a complete medium without compound served as control.
Briefly, 5 × 10^3 cells (HEK293 cells) were seeded and allowed to adhere overnight. […] Post 48 h, the cells were exposed to MTT (5 mg/mL in phosphate-buffered saline). The formazan crystals were dissolved in DMSO and the absorption was measured at 570 nm using a microplate reader (Tecan Spark, Switzerland). The percentage viability of the cells was determined.

IC50 (mean ± SD) α-Glucosidase (yeast α-glucosidase) | IC50 [1] [µM] | melting point [°C] | Structure (SMILES) | cytotoxicity against HEK293 cell lines (in words) (HEK293 cells) | cell death (HEK293 cells; HEK293, MTT, 25 µg/mL)
30.23 ± 0.14 µg·h/mL | 92.7 | 148 to 150 | COc1ccc(-c2nc3cc(C(=O)/C=C/c4ccccc4Cl)ccc3n2C)cc1OC [Compound 7a] |  | 
25.21 ± 0.13 c µg/mL | 91.9 | 159 to 161 | COc1ccccc1/C=C/C(=O)c1ccc2c(c1)nc(-c1ccc(OC)c(OC)c1)n2C [Compound 7c] |  | 
631.7 ± 12.5 µg·h/mL | 85 | 98 to 100 | COc1ccc(/C=C/C(=O)c2ccc3c(c2)nc(-c2ccc(OC)c(OC)c2)n3C)cc1 [Compound 7d] |  | 
28.75 ± 0.12 f µg/mL | 76.4 | 127 to 129 | COc1ccc(-c2nc3cc(C(=O)/C=C/c4cc(OC)c(OC)c(OC)c4)ccc3n2C)cc1OC [Compound 7f] |  | 
36.22 ± 0.58 l µg/mL | 68.9 | 168 to 170 | COc1cc(-c2nc3cc(C(=O)/C=C/c4ccc(C)cc4)ccc3n2C)cc(OC)c1OC [Compound 7h] |  | 

The remaining lines, values behind:

Structure (SMILES) | IC50 (mean ± SD) α-Glucosidase (yeast α-glucosidase) | IC50 [1] [µM] | melting point [°C] | cytotoxicity against HEK293 cell lines (in words) (HEK293 cells) | cell death (HEK293 cells; HEK293, MTT, 25 µg/mL)
COc1ccc(-c2nc3cc(C(=O)/C=C/c4ccc(C)cc4)ccc3n2C)cc1OC [Compound 7b] | 32.10 ± 0.96 i µg/mL | 81 |  | negligible cytotoxicity | 
COc1ccc(/C=C/C(=O)c2ccc3c(c2)nc(-c2ccc(OC)c(OC)c2)n3C)cc1OC [Compound 7e] | 23.88 ± 0.55 b µg/mL | 75.1 |  | negligible cytotoxicity | 
COc1cc(-c2nc3cc(C(=O)/C=C/c4ccccc4Cl)ccc3n2C)cc(OC)c1OC [Compound 7g] | 29.28 ± 0.35 g µg/mL | 61.7 | 183 to 184 |  | 
COc1ccccc1/C=C/C(=O)c1ccc2c(c1)nc(-c1cc(OC)c(OC)c(OC)c1)n2C [Compound 7i] | 33.20 ± 0.60 J·µg/mL | 52.8 | 176 to 178 |  | 
COc1ccc(/C=C/C(=O)c2ccc3c(c2)nc(-c2cc(OC)c(OC)c(OC)c2)n3C)cc1 [Compound 7j] | 27.21 ± 0.36 e µg/mL | 85.6 | 142 to 144 |  | 
COc1ccc(/C=C/C(=O)c2ccc3c(c2)nc(-c2cc(OC)c(OC)c(OC)c2)n3C)cc1OC [Compound 7k] | 29.30 ± 0.21 g µg/mL | 84.4 | 137 to 139 |  | 
COc1cc(/C=C/C(=O)c2ccc3c(c2)nc(-c2cc(OC)c(OC)c(OC)c2)n3C)cc(OC)c1OC [Compound 7l, (E)-1-(1-methyl-2-(3,4,5-trimethoxyphenyl)-1H-benzo[d]imidazol-5-yl)-3-(3,4,5-trimethoxyphenyl)prop-2-en-1-one] | 22.45 ± 0.36 a µg/mL | 39.5 |  | negligible cytotoxicity; also recorded: without exerting toxicity | 
CO[C@@]12[C@H](COC(N)=O)C3=C(C(=O)C(C)=C(N)C3=O)N1C[C@@H]1N[C@@H]12 [Mitomycin, reference compound] |  |  |  |  | around 60%
